From patent US20070054886A1, “Ras antagonists for treating neurodegenerative disorders” (RAMOT AT TEL AVIV UNIVERSITY, LTD., priority 2003, published 2007)
Several values for one entry are separate records, joined by “and”; a condition that tells them apart may be missing. Equal values may be shown once. Entries after “also recorded” stand apart in the source; their conditions may differ.

Experiments:
[1] = Pharmacokinetics of [3H]-FTS in the mouse brain; format: in vivo; conditions: [3H]-FTS 3 mg/kg i.p.
Description: Farnesyl 1-^3H-thiosalicylic acid ([^3H]-FTS), 12.5 Ci/mmol, 1 mCi/mL, was purchased from American Radiolabeled Chemicals (ARC; St. Louis, Mo., U.S.A.). The labeled drug was isotopically diluted with unlabeled FTS. Mice (ICR strain) were injected i.p. with 0.1 ml of this FTS solution (14.8 μCi, 351 nmol, 3 mg/kg). At each time point (2.5, 5, 10, 20, 60, and 120 min) after the injection, two mice were killed and their brains were removed. The forebrains were washed in PBS, weighed and homogenized, and samples were counted in a scintillation fluid using an LKB β-counter with automatic correction for quenching. Data are expressed as [^3H]-FTS in dpm/g tissue as a function of time.
First it was necessary to determine whether FTS can enter the brain, and if so, whether it can exist there in the micromolar concentration range previously found to be relevant to its efficacy as a Ras inhibitor in vitro (Kloog et al. 1999). To this end, we performed pharmacokinetic experiments in which mice received [^3H]-FTS (3 mg/kg, i.p.), and the amounts of labeled inhibitor in the brain were then determined by counting radioactivity in samples of brain homogenates. […] Based on the specific activity of [^3H]-FTS and assuming a homogeneous distribution in the brain, we estimated that the peak concentration of FTS was 4.5 μM. Thus, under the conditions employed here, it appears that a pharmacologically relevant concentration of FTS in the brain was achieved.

[2] = system: Ras-GTP
Description: The study was approved by the Institutional Animal Care Committee of Hadassah Medical Center and the Hebrew University. Sixty male C57bl mice weighing 25 to 35 g were used. CHI was induced under ether anesthesia, as previously described (Chen et al., 1996) and modified (Yatsiv et al., 2002). Briefly, after induction of ether anesthesia the skull was exposed by a midline longitudinal incision. A tipped Teflon cone was placed in the mid-coronal plane above the left anterior frontal area, 1 mm lateral to the midline. A weight (74 g) was dropped onto the cone (from a height of 15 cm), resulting in a focal injury. After trauma, animals received supporting oxygenation with 100% O2 for no longer than 2 min and were then returned to their cages. Sham-injured mice were anesthetized and their skin was incised, but they were not subjected to CHI.
In the first experiment mice were sacrificed 10, 30, or 120 min after sham-injury or CHI to assess levels of Ras=GTP and phospho=ERK. In the second set of experiments, the animals received FTS (5 mg/kg i.p.) or vehicle, 1 hr after CHI and sham-injured mice received the vehicle (n=4 per group). The mice were sacrificed 2 or 24 hrs after CHI, their brains were removed, and cortical tissue samples adjacent or contra-lateral to the site of injury were homogenized in homogenization buffer containing protease inhibitors and 0.5% Triton X100 as described (Haklai et al., 1998). Debris was removed by centrifugation and protein in the extract was determined with the aid of the Bio-Rad protein assay (Bio-Rad Laboratories, GmbH). Total Ras protein was determined by Western immunoblotting of 30 μg of protein with 1:2500 pan-Ras Ab (Oncogene Research Products, followed by 1:7500 peroxidase goat anti-mouse IgG (Haklai et al., 1998). For determination of GTP-bound Ras in protein samples (1 mg), Ras-GTP was pulled down by glutathione-S-transferase fused to the Ras-binding domain of Raf (GST-RBD) which binds Ras-GTP only. The GST-RBD-Ras-GTP was pulled down with glutathione-agarose beads, and Ras was then determined by immunoblotting with pan-Ras Ab as described above, followed by enhanced chemiluminescence (ECL; Amersham Pharmacia Biotech, Piscataway, N.J., U.S.A) (Paz et al., 2000). The bands were quantified by densitometry with Image Master VDS-CL (Amersham Biotech) using TINA 2.0 software (Ray Tests).

[3] = system: phospho-ERK; assay: ERK and phospho-ERK immunoblot in brains of CHI mice; format: in vivo, mouse; conditions: 2 hrs after CHI
Description: ERK and phospho-ERK were determined in 30 μg of brain extract proteins by immunoblotting, ECL, and densitometry (Paz et al., 2000). ERK immunoblots were incubated with 1:2000 rabbit anti-ERK1/2 Ab (Santa-Cruz) and then with 1:1000 peroxidase-goat anti rabbit IgG. Phospho-ERK immunoblots were incubated with 1:10,000 mouse anti-phospho-ERK Ab (Sigma) and then with 1:10,000 peroxidase-goat anti-mouse IgG.

[4] = system: mice subjected to closed head injury (CHI); assay: Neurobehavioral evaluation (neurological severity score, NSS) of CHI mice; format: in vivo, mouse
Description: The neurological severity score (NSS) is a tool for assessing an animal's functional status. It is based on the ability of the animal to perform different motor and behavioral tasks representing motor ability, balancing, and alertness (Beni-Adani et al., 2001). Scores range from zero, achieved by healthy uninjured animals, to a maximum of 10, indicating severe neurological dysfunction, with failure of all tasks. The NSS obtained 1 hr after trauma reflects the initial severity of injury and is inversely correlated with neurological outcome. Animals were evaluated 1 hour after CHI, and again at 24 and 48 hrs and at 5 and 7 days. To assess the effect of FTS on neurological recovery, mice were randomly assigned to treatment with either FTS or vehicle (n=10 per group), administered immediately after the initial NSS evaluation. Each animal was assessed by an observer who was blinded to the treatment it had received. The extent of recovery (ΔNSS) was calculated as the difference between the NSS at 1 hr and at any subsequent time point. Thus, a higher ΔNSS reflects better recovery. This parameter therefore serves as a tool for evaluation of drug effects.

[5] = 2 hrs after CHI, drug i.p. 1 hr after CHI, FTS 5 mg/kg, MK-801 0.5 mg/kg or 1 mg/kg, mean±SD

In the case of `CC(C)=CCC/C(C)=C/CC/C(C)=C/CSc1ccccc1C(=O)O` [FTS, farnesyl-thiosalicylic acid], the “entry of FTS into the brain” value ([1]; mouse) is reported as “enters the mouse brain; also recorded: crosses the blood-brain barrier”, the “time for which FTS amounts in the brain remain relatively high” value ([1]; mouse forebrain) is reported as “at least 2 hrs” and the “time to peak amounts of FTS in the brain” value ([1]; mouse forebrain) is reported as 20 to 30 min. The “peak concentration of FTS in the brain” value ([1]; estimated from specific activity assuming homogeneous distribution in the brain) was 4.5 µM, the “inhibition of the CHI-induced increase in Ras-GTP, left (contused) hemisphere” value [2, 5] was 81.7±10.0% and 75.2±6.8% and 82% and 82±10% and the “inhibition of the CHI-induced increase in Ras-GTP, right (contra-lateral) hemisphere” value [2, 5] was 70.4±12.0% and 67.2±7.1% and 70±12%. The “inhibition of Ras-GTP, range over both hemispheres” value ([2]; CHI mice, 2 hrs after CHI) was 70-82%, the “effect on the total amount of Ras in the brain” value ([2]; FTS 5 mg/kg i.p. 1 hr after CHI) was “no effect” and the “effect on Ras-GTP levels 24 hrs after CHI” value ([2]; FTS 5 mg/kg i.p. 1 hr after CHI, assessed 24 hrs after CHI) was “almost no effect”. The “effect on amounts of total ERK” value [3] was “Neither inhibitor altered”, the “inhibition (reduction) of phospho-ERK, right (contra-lateral) hemisphere” value ([3]; drug i.p. 1 hr after CHI, FTS 5 mg/kg, MK-801 0.5 mg/kg or 1 mg/kg) was 73.2±8.3% and 73±8% and the “median recovery after seven days (ΔNSS)” value ([4]; mice processed for autoradiography and histology (4 FTS-treated), vehicle 0, p<0.05) was 2. The “mean ΔNSS on day 7 after injury” value ([4]; mice, FTS 5 mg/kg i.p. 1 hr after CHI, n=10, controls 1.7) was 4.2, the “NSS 1 hour after injury” value ([4]; mice, baseline before treatment, FTS-treatment group, n=10, mean±SD, scale 0-10) was 6.7±0.3 and the “reduction of CHI-induced neurological deficits / improvement of neurological status (extent of recovery)” value ([4]; mice, single dose FTS 5 mg/kg, up to 7 days after CHI, P<0.0001) was 60%.
